“And” between values parts separate entries of the source, which are not always exact repeats. Identical values can stand only once. Counter-ions that a name gives are not always drawn.

Results on two compounds are retold here after PMC12867150, “A fungi-derived cyclic peptide enhances Th9-mediated antitumor immunity by targeting ZAP70 and SREBP1” (The Journal of Clinical Investigation, 2025).

Holding throughout (type): cell-based, mouse
The subject of one data set is CD69 on Th9 cells. The data set is described as follows: Flow cytometry of CD69 on Th9 cells in vitro (Figure 5J, 7D). On the set-up: CD69 expression in Th9 cells: unit not given here. The following applies: for CD69 (flow cytometric quantification): Figure 5J, (n = 5); for CD69 (flow cytometric quantification) / CD69 expression in Th9 cells: individual replicates; for CD69 expression in Th9 cells: Figure 7D, one per column (n = 4). The method, then:
(§1) Naive CD4^+ T cells were isolated from the spleens of C57BL/6J or CD45.1^+ OT-II mice using the MojoSort Mouse CD4 Naive T Cell Isolation Kit (BioLegend, catalog 480040), following the manufacturer’s protocol. Purified cells were cultured in RPMI-1640 medium supplemented with 10% FBS, 1% penicillin-streptomycin, and 0.1% β-mercaptoethanol (Gibco, catalog 21985023).
(§2) T cell polarization was initiated under plate-bound anti-CD3 (2 μg/mL, clone 17A2, BioXCell, catalog BE0002) and soluble anti-CD28 (1 μg/mL, clone 37.51, BioXCell, catalog BE0015-1) stimulation, with the addition of cytokines and neutralizing antibodies specific to each subset. For Th9 cells, these included IL-4 (10 ng/mL, Peprotech, catalog 400-04), TGF-β (1 ng/mL, EPOTO Biotech, catalog HF-2021), anti–IL-12 (5 μg/mL, clone C17.8, BioXCell, catalog BE0051), and anti–IFN-γ (10 μg/mL, clone XMG1.2, BioXCell, catalog BE0055); for Th1 cells, these included IL-12 (10 ng/mL, GenScript, catalog Z03211-50) and anti–IL-4 (5 μg/mL, clone 11B11, BioXCell, catalog BE0045); for Th2 cells, these included IL-4 (50 ng/mL), anti–IFN-γ (20 μg /mL), anti–IL-12 (5 μg/mL), Th17 cells: IL-6 (20 ng/mL, EPOTO Biotech, catalog MF-1006), TGF-β (1 ng/mL), IL-1β (10 ng/mL, Peprotech, catalog AF-211-11B), anti–IFN-γ (10 μg/mL), anti–IL-12 (5 μg/mL), and anti–IL-4 (5 μg/mL); and for Tregs, these included TGF-β (3 ng/mL). After 3 days of initial culture, cells were either collected for downstream assays or continued in extended culture with refreshed cytokines to maintain lineage commitment.
(§3) Details regarding staining panels (human and mouse), reagents (including clones and catalog numbers), acquisition settings, compensation/controls, and analysis procedures are provided in Supplemental Methods.
(§4) BioLegend, Cat. No. 422301 or Mouse TruStain FcX™, BioLegend, Cat. No. 101319) for 10 minutes at 4°C. For surface marker detection, cells were stained with fluorochrome-conjugated monoclonal antibodies in 96-well V-bottom plates and incubated on ice for 30 minutes. After staining, cells were washed twice and resuspended in FACS buffer for analysis.
(§5) Prior to intracellular cytokine staining, cells were restimulated for 4 hours with PMA (Absin, Cat. No. abs9107), ionomycin (Sigma-Aldrich, Cat. No. I0634), and brefeldin A (MedChemExpress, Cat. No. HY-16592). For intracellular cytokine staining, cells were first surface-stained as described above, then fixed and permeabilized using the BD Cytofix/Cytoperm™ kit (BD Biosciences, Cat. No. 554714) according to the manufacturer ’s protocol. Intracellular proteins were stained with directly conjugated antibodies targeting IL-9, IL-17a, IL-4, IFN-γ, TNF-α, FOXP3, p-ZAP70, Perforin, and […]
(§6) Antibodies used for mouse samples included those against IL-9 (PE, clone RM9A4, Biolegend, Cat. No. 514104), IFN-γ (PE, clone XMG1.2, Biolegend, Cat. No.
(§7) Cat. No. 103138), CD4 (APC/Cy7, clone E-AB-F1353UJ, Elabscience, Cat. No.
(§8) AF18028), CD8α (PerCP/Cy5.5, clone E-AB-F1104UJ, Elabscience, Cat. No. […]
(§9) clone E-AB-F1187UH, Elabscience, Cat. No. AF19854), TNF-α (BV421, clone MP6-XT22, Biolegend, Cat. No. 506328), FOXP3 (PE, clone FJK-16s, eBioscience, Cat. No.
(§10) Perforin (APC, clone S16009A, Biolegend, Cat. No. 154303) and Granzyme B (APC, […]
(§11) clone QA16A02, Biolegend, Cat. No. 372203). […]
In general terms: In flow cytometry, cells or beads pass a laser one at a time.

A further data set relates to PD-1 on Th9 cells. Nature of the data set: Flow cytometry of PD-1 on Th9 cells in vitro (Figure 5K, 7E, S3D). Conditions: for PD-1 expression: result in words; for PD1 (flow cytometric quantification): Figure 5K, (n = 5); for PD1 (flow cytometric quantification) / PD-1 expression in Th9 cells: individual replicates; for PD-1 expression in Th9 cells: Figure 7E, one per column (n = 4); for Expression of PD-1 in Th9: Supplemental Figure 3D. As for the experimental part:
as §1, §2, §3, §4, §5, §6, §7, §8, §9, §10, §11

In data set [1] the test system is gene expression in Th9 cells. The data set is described as follows: Bulk RNA-seq of Th9 cells (Figure 3A-D, 7G, S5B, S8G-H). Also on record: key to Il13 expression (RNA-seq) / Batf expression (RNA-seq) / Il4 expression (RNA-seq) / Il5 expression (RNA-seq) / Il9 expression (RNA-seq) / Tnfsf15 expression (RNA-seq) / Tnf expression (RNA-seq) / Lta expression (RNA-seq) / Fasl expression (RNA-seq) / Tnfsf9 expression (RNA-seq) / Tnfsf14 expression (RNA-seq): FPKM (fragments per kilobase of transcript per million mapped reads). The following applies: for cluster 2 genes (calcium ion transport, glycolysis, oxidative phosphorylation, ERK signaling) / lipid biosynthesis genes: RNA-seq clustering; for Fpkm of Slc2a1: Supplemental Figure 5B. As for the experimental part:
RNA integrity and concentration were assessed by Majorbio Technologies. RNA-seq libraries were constructed following standard Illumina protocols and sequenced using a paired-end strategy on an Illumina platform.
Raw sequencing reads were quality filtered and adapter trimmed using Trim Galore (v0.6.x) and then aligned to the mouse reference genome (GRCm38) with HISAT2 (v2.2.x). Gene-level quantification was performed using featureCounts (v2.0.x) to obtain raw read counts, which were subsequently normalized as fragments per kilobase of transcript per million mapped reads for exploratory analyses and data visualization.
Differential gene expression analysis was conducted using DESeq2 (v1.44.0) in R, with significance thresholds set at an adjusted P < 0.05 and absolute fold change ≥1.5. Visualization of transcriptomic profiles included volcano plots generated via ggplot2 (v3.5.1) and heatmaps rendered using pheatmap (v1.0.12), based on raw expression values.
Gene expression clustering was conducted using the R package ClusterGVis (v0.1.2).

Setting [2] is: EpA + fatostatin, result in words.
The mark [3] stands for this setting: EpA (10 µM) + Fatostatin (10 µM).
[4] abbreviates: EpA vs control, adjusted P < 0.05, fold change ≥1.5.
[5] abbreviates: Th9, day 4, samples EPA_1 to EPA_3.

For anteiso-C15 Leu7 surfactin [EpA], the CD69 expression entry in the data set on CD69 on Th9 cells (setting [2]) is reported as “elevated in the combination group”. Besides, the “CD69 (flow cytometric quantification)” value in the data set with CD69 on Th9 cells (EpA + ERKin combination) was 27.9 and 23.5 and 24 and 26.9 and 24.1. Further, in the data set on CD69 on Th9 cells (EpA + MEKin combination), the “CD69 (flow cytometric quantification)” value is 20.8 and 22.9 and 21.2 and 18.2 and 18.1. In addition, in the data set on CD69 on Th9 cells (single agent), the “CD69 (flow cytometric quantification)” value is 59.4 and 133 and 54.7 and 74.6 and 155. The “CD69 expression in Th9 cells” value in the data set with CD69 on Th9 cells (setting [3]) is 54.9 and 46.3 and 45.8 and 49.3. Further, in the data set with CD69 on Th9 cells (single agent, 10 µM), the “CD69 expression in Th9 cells” value is 41.4 and 40.9 (2×) and 41.7. Also, in the data set on PD-1 on Th9 cells (EpA-Th9 cells in vitro), the PD-1 expression result is “increased PD-1 expression”. In the data set on PD-1 on Th9 cells (EpA + ERKin combination), the “PD1 (flow cytometric quantification)” value is 205 and 196 and 199 and 194 and 192. For the same compound, in the data set on PD-1 on Th9 cells (EpA + MEKin combination), the “PD1 (flow cytometric quantification)” value is 163 and 169 and 166 and 170 and 159. The “PD1 (flow cytometric quantification)” value in the data set on PD-1 on Th9 cells (single agent) was 986 and 1657 and 450 and 878 and 1491. Further, the “PD-1 expression in Th9 cells” value with PD-1 on Th9 cells (setting [3]) is 424 and 342 and 382 and 324. Further, in the data set on PD-1 on Th9 cells (single agent, 10 µM), the “PD-1 expression in Th9 cells” value was 366 and 370 and 368 and 374. Besides, the “Expression of PD-1 in Th9” value in the data set with PD-1 on Th9 cells (replicate 1) amounted to 836. For the same compound, in the data set with PD-1 on Th9 cells (replicate 2), the “Expression of PD-1 in Th9” value stood at 830. For the same compound, the “Expression of PD-1 in Th9” value with PD-1 on Th9 cells (replicate 3) was 871. In addition, in the data set on PD-1 on Th9 cells (replicate 4), the “Expression of PD-1 in Th9” value was 812. For the same compound, the “Expression of PD-1 in Th9” value in the data set with PD-1 on Th9 cells (replicate 5) was 848. The “Expression of PD-1 in Th9” value with PD-1 on Th9 cells (replicate 6) worked out at 842. In addition, in the data set on PD-1 on Th9 cells (fatostatin alone or with EpA), the PD-1 expression entry is “not further increased in EpA-Th9 cells treated with fatostatin”. Also, in data set [1] (setting [2]), the Fads1 expression result is “reduced expression” and the Srebp1 expression entry is on record as “reduced expression”. In data set [1] (setting [4]), the “number of downregulated genes” value is given as 271 and the “number of upregulated genes” value is on record as 228. Further, in data set [1] (result in words), the “cluster 2 genes (calcium ion transport, glycolysis, oxidative phosphorylation, ERK signaling)” value is recorded as “notably upregulated”; the lipid biosynthesis genes entry is reported as “progressively downregulated”; the SLC2A1 expression entry was “markedly upregulated”; the “Th9 cytokines (Il9, Il4, Il5, Il13) and Spi1, Batf expression” value was “upregulated”. The “cytotoxic effector molecules Tnf, Lta, Fasl” value in data set [1] (result in words) is reported as “strong upregulation”. Further, the “Fpkm of Slc2a1” value in data set [1] (replicate 1) turned out to be 48.3562 Fpkm. The “Fpkm of Slc2a1” value in data set [1] (replicate 2) was determined as 48.7446 Fpkm. The “Fpkm of Slc2a1” value in data set [1] (replicate 3) was 49.9027 Fpkm. In addition, in data set [1] (setting [5]), the “Batf expression (RNA-seq)” value is 93.0998 and 96.722 and 96.1164; the “Fasl expression (RNA-seq)” value was 9.708 and 9.458 and 10.2176; the “Il4 expression (RNA-seq)” value is 8.523 and 8.979 and 8.835; the “Il5 expression (RNA-seq)” value is 0.7687 and 0.6368 and 0.9066. Moreover, in data set [1] (setting [5]), the “Il9 expression (RNA-seq)” value is 619.89 and 651.961 and 648.029; the “Il13 expression (RNA-seq)” value is 15.584 and 17.9728 and 14.2881; the “Lta expression (RNA-seq)” value was 41.371 and 42.2064 and 41.7705; the “Tnf expression (RNA-seq)” value was 5.46 and 5.834 and 6.11. For the same compound, in data set [1] (setting [5]), the “Tnfsf9 expression (RNA-seq)” value is 1.423 and 1.362 and 1.3365; the “Tnfsf14 expression (RNA-seq)” value is 5.499 and 5.503 and 5.511; the “Tnfsf15 expression (RNA-seq)” value is 0.1165 and 0.1206 and 0.07294.
As to `CCCc1cc(-c2nc(-c3ccc(C)cc3)cs2)ccn1` [fatostatin, fatostatin hydrobromide, reference compound], in the data set on CD69 on Th9 cells (single agent, 10 µM), the “CD69 expression in Th9 cells” value was 39.9 and 41.1 and 41.2 and 39.2. Also, in the data set with PD-1 on Th9 cells (single agent, 10 µM), the “PD-1 expression in Th9 cells” value was 384 and 402 and 369 and 372. Also, the PD-1 expression result in the data set with PD-1 on Th9 cells (fatostatin alone or with EpA) was “induced PD-1 upregulation in control Th9 cells”. Also, in data set [1] (result in words), the “cluster 2 genes (calcium ion transport, glycolysis, oxidative phosphorylation, ERK signaling)” value is “further enhanced” and the lipid biosynthesis genes result is given as “further suppressed”.
